The values that follow come from patent US7029657B2, “Nasal spray steroid formulation and method” (Balance Pharmaceuticals, Inc., priority 2002, dated 2006).

One data set concerns women with endometriosis. As to the kind of experiment: Bone mineral density (BMD) of the lumbar spine by DEXA, ratio of 6 month to baseline. In kind it is in vivo. The note with it: deslorelin alone, another study. Here is the method:
Women with endometriosis treated with intranasal deslorelin (a GnRH compound) were assigned to one of three methods of estradiol add-back: (1) 50 μg/day estradiol transdermal patch, (2) 300 μg/day intranasal estradiol, or (3) 300 μg/day intranasal estradiol with 275 μg/day intranasal testosterone. Loss of bone mineral density (BMD) is a known side effect of treatment with GnRH compounds. Thus, BMD of the lumbar spine (L1–L4) of the test subjects in Example 4 was obtained bydual-energy X-ray absorptiometry (DEXA) prior to and after six months of treatment. The results are shown in Table 4 as the ratio of BMD at the six month time point (BMD6mo.) to the BMD prior to treatment (BMDbaseline).
Women with endometriosis treated with intranasal deslorelin (GnRH compound) were assigned to one of three methods of add-back: (1) 50 μg/day estradiol transdermal patch, (2) 300 μg/day intranasal estradiol, or (3) 300 μg/day intranasal estradiol with 275 μg/day intranasal testosterone. Bone mineral density (BMD) of the lumbar spine was obtained by dual-energy X-ray absorptiometry (DEXA) prior to and after six months of drug treatment. BMD changes are shown in Table 4 as the ratio of the 6 month value compared to the baseline value.

For data set [1] the following is noted: cited from earlier work.

On to `CCNC(=O)[C@@H]1CCCN1C(=O)[C@H](CCCN=C(N)N)NC(=O)[C@H](CC(C)C)NC(=O)[C@@H](Cc1c[nH]c2ccccc12)NC(=O)[C@H](Cc1ccc(O)cc1)NC(=O)[C@H](CO)NC(=O)[C@H](Cc1c[nH]c2ccccc12)NC(=O)[C@H](Cc1cnc[nH]1)NC(=O)[C@@H]1CCC(=O)N1` [Deslorelin (D), deslorelin], for which, in the data set with women with endometriosis, the “Ratio of 6 Month BMD to Baseline BMD, Mean” value was determined as 0.971.
Turning to `OC[C@H]1O[C@@H]2O[C@H]3[C@H](O)[C@@H](O)[C@@H](O[C@H]4[C@H](O)[C@@H](O)[C@@H](O[C@H]5[C@H](O)[C@@H](O)[C@@H](O[C@H]6[C@H](O)[C@@H](O)[C@@H](O[C@H]7[C@H](O)[C@@H](O)[C@@H](O[C@H]8[C@H](O)[C@@H](O)[C@@H](O[C@H]9[C@H](O)[C@@H](O)[C@@H](O[C@H]%10[C@H](O)[C@@H](O)[C@@H](O[C@H]1[C@H](O)[C@H]2O)O[C@@H]%10CO)O[C@@H]9CO)O[C@@H]8CO)O[C@@H]7CO)O[C@@H]6CO)O[C@@H]5CO)O[C@@H]4CO)O[C@@H]3CO` [δ-cyclodextrin], the “water solubility (at 25° C., g/100 mL)” value in data set [1] was 8.19 g/100 mL.
